Measured values: patent US8835171B2, “Materials and methods related to sodium/potassium adenosine triphosphase and cholesterol” (The University of Toledo, priority 2010, dated 2014)

Assays:
[1] = biological target: T1, purified pig kidney Na/K-ATPase (PKE) (Sus scrofa, UniProt P05024); assay: NBD-cholesterol binding assay with purified pig kidney enzyme (PKE)
T1 construct: Purified Na/K-ATPase membrane samples (PKE) were prepared from pig kidney medulla; from tissue; host or cells: pig kidney outer medulla
Excerpt: As the purified membrane fragments contained large amount of cholesterol, which may already saturated binding sites on the Na/K-ATPase, most of the cholesterol content was extracted by Mβ-CD (FIG. 5B). To study the binding between the Na/K-ATPase and cholesterol, a cholesterol analogue, 25-[N-[(7-nitro-2-1,3-benzoxadiazol-4-yl)methyl]amino]-27-norcholesterol (NBD cholesterol), was used for the binding assay. NBD-cholesterol was used for the study of protein-cholesterol interaction before. Unlike cholesterol, NBD-cholesterol is able to emit fluorescence signals that peak at ˜530 nm when excited at 473 nm because of the replacement of the methyl group at C25 position with an NBD group (FIG. 5C). In the aqueous solution, its fluorescence is largely quenched. However, when it binds to a protein and is exposed to a hydrophobic environment, the fluorescence signals will increase. Moreover, it has much higher critical micelle concentration (˜650 nM) than that of the cholesterol (30 nM) so that higher concentrations of the NBD-cholesterol can be used during the binding assay. […] The Kd value is 100 nM-200 nM.
To further confirm that the results represented lipid-protein interaction instead of lipid-lipid interaction, the inventors measured fluorescence resonance energy transfer (FRET) signals. […]

Na/K-ATPase α1 [2] = assay: Western blot of Na/K-ATPase α1 level in LLC-PK1 cells; assay type: cell-based, pig
Protocol: LLC-PK1 cells were grown in 6 cm culture dish to 100% confluence and serum starved for 24 hours. Cells were then treated by 10 mM Mβ-CD for 1 hour. […] Cell lysates were subject to protein assay and Western blot analysis. Protein concentrations of cell lysates or tissue homogenates were measured by Protein Assay Kit from Bio-Rad (Hercules, Calif.). Equal amounts of protein were loaded onto the gel and separated on 10% SDS-PAGE, transferred to an Optitran membrane, and probed with corresponding antibodies. Protein signals were detected with an ECL kit. The density of the Western bands was quantified by the free software Image J.

[3] = system: insulin receptor β subunit; assay: Western blot of insulin receptor in LLC-PK1 cells; assay type: cell-based, pig
Protocol: (§1) Protein concentrations of cell lysates or tissue homogenates were measured by Protein Assay Kit from Bio-Rad (Hercules, Calif.). Equal amounts of protein were loaded onto the gel and separated on 10% SDS-PAGE, transferred to an Optitran membrane, and probed with corresponding antibodies. Protein signals were detected with an ECL kit. The density of the Western bands was quantified by the free software Image J.

Na/K-ATPase α1 [4] = assay: Immunostaining / confocal imaging of Na/K-ATPase α1 distribution in LLC-PK1 cells; assay type: cell-based, pig
LLC-PK1 cells [5] = settings: 10 mM Mβ-CD 30-60 minutes at 37°, previous work from the inventors' lab; cited from earlier work
LLC-PK1 cells [6] = assay: Cholesterol assay of LLC-PK1 cell lysates; assay type: cell-based, pig; settings: U18666A-treated cells
Protocol: LLC-PK1 cells were grown in 6 cm culture dish to 100% confluence and serum starved for 24 hours. […] […] Cell lysates were subject to protein assay and Western blot analysis. Cholesterol assay and filipin staining were performed as described in Chen et al., Regulation of intracellular cholesterol distribution by Na/K-ATPase. Journal Biological Chemistry, Volume 284, pages 14881-14890 (2009).

caveolin-1 = assay: Western blot of caveolin-1 in LLC-PK1 cells; assay type: cell-based, pig; settings: U18666A 48 h
Protocol: as §1

cell surface Na/K-ATPase = assay: 3H-ouabain binding assay of cell surface Na/K-ATPase; assay type: cell-based, pig; settings: LLC-PK1 cells, U18666A
Protocol: [3H]Ouabain Binding was conducted as described in Tian et al., Changes in sodium pump expression dictate the effects of ouabain on cell growth, Journal of Biological Chemistry, 14921-1429 (2009).

Na/K-ATPase α1 mRNA = assay: Quantitative RT-PCR of α1 mRNA; assay type: cell-based, pig; settings: LLC-PK1 cells, 10 μg/ml U18666A 24 h
Protocol: The quantitative RT-PCR on mRNA levels of Na/K-ATPase α1 and GAPDH were performed as described in Tian et al., Changes in sodium pump expression dictate the effects of ouabain on cell growth, Journal of Biological Chemistry, 14921-1429 (2009).

LLC-PK1 cells [7] = assay: Filipin staining of cholesterol distribution in LLC-PK1 cells; assay type: cell-based, pig; settings: U18666A 24 h
Protocol: Cholesterol assay and filipin staining were performed as described in Chen et al., Regulation of intracellular cholesterol distribution by Na/K-ATPase. Journal Biological Chemistry, Volume 284, pages 14881-14890 (2009).

wild-type rat α1 = assay: α1 and filipin staining in wild-type rat α1-rescued cells (AAC-19); assay type: cell-based; settings: AAC-19 cells, different doses of U18666A 24 h
Protocol: Thus, it was of interest to explore whether the CRAC plays a role in cholesterol depletion-induced α1 endocytosis. Firstly, the inventors treated wild-type rat α1 rescued-cells, AAC-19, with U18666A and stained both α1 and cholesterol. […] Staining of the Na/K-ATPase α1 was performed as previously described. Briefly, cells were serum-starved for 24 hours and treated on coverslips. The cells were then fixed with ice-cold methanol for 30 min and blocked with Signal Enhancer from Invitrogen. Next, cells were incubated with a monoclonal anti-Na/K-ATPase α1 antibody at 4° C. overnight. After three washes with PBS, a secondary Alex 488-conjugated anti-mouse antibody was added and incubated at room temperature for 3 hours. The coverslip was washed, mounted and imaged with a Leica confocal microscope.

Y55S mutant rat α1 = assay: α1 and filipin staining in Y55S mutant rat α1-rescued cells (PY-17-Y55S); assay type: cell-based; settings: PY-17-Y55S cells, different doses of U18666A 24 h
Excerpt: Next, the inventors mutated the essential Tyr55 in the rat α1 CRAC (corresponds to the Tyr53 in pig α1) to Ser55 by a site-directed mutagenesis method and generated the stable mutant rat α1-rescued cell line (PY-17-Y55S). Once the cell line was established, the inventors did the same experiment as on AAC-19 cells. […] To confirm the findings, the inventors had the CRAC synthesized with a positively charged leader peptide, HIV-TAT, tagged to the N-terminus of CRAC so that the TAT-CRAC peptide was cell permeable. Theoretically, loading of the TAT-CRAC peptide into the cells may interrupt the binding between endogenous α1 and cholesterol by competitive inhibition. […] Taken together, the cholesterol-regulated Na/K-ATPase α1 membrane trafficking is dependent on the cholesterol-α1 interaction.
The rat α1 CRAC mutant (Tyr55 to Ser55) was created by PCR-based site-directed mutagenesis on the pRc/CMV-a1AACm1 plasmid as generated previously. The Y55S mutant rat α1 knock-in cell line was then established using the same protocol described before. The pEYFP-α1 plasmid was generated as described previously. RFP-rab7 plasmid was requested from www.addgene.org. The preparation of plasmid constructs expressing GST fusion proteins were made from pGEX-4T-1 as previously described. GST-NT (Ala1-Ser160) and GST-NT-Y55S expression vectors were constructed based on sequence of pig kidney Na/K-ATPase α1 subunit. […]

Compound: CC(C)CCC[C@@H](C)[C@H]1CC[C@H]2[C@@H]3CC=C4C[C@@H](O)CC[C@]4(C)[C@H]3CC[C@]12C [cholesterol]
- competition of binding between NBD-cholesterol and purified PKE ([1]; 100 nM PKE, 30 nM NBD-cholesterol, FRET): competed the binding

Compound: methyl β-cyclodextrin [Mβ-CD]
- decrease in α1 level (Na/K-ATPase α1 [2]; 10 mM Mβ-CD 1 h, 0 h recovery): ~40%
- expression of insulin receptor ([3]; during cholesterol depletion by Mβ-CD and repletion): unchanged
- α1 immunostaining signals (Na/K-ATPase α1 [4]; Mβ-CD treated LLC-PK1 cells): lower α1 signals from the plasma membrane
- plasma membrane cholesterol pool (LLC-PK1 cells [5]): significantly lowered

Compound: C[C@@H]1C[C@@H]([C@H](O)CC2CC(=O)NC(=O)C2)C(=O)[C@@H](C)C1 [cycloheximide]
- effect on U18666A-induced α1 redistribution to the intracellular compartments (Na/K-ATPase α1 [4]; cycloheximide 10 μg/ml 1 h before U18666A 24 h): did not prevent

Compound: CCN(CC)CCO[C@H]1CC[C@@]2(C)C(=CC[C@@H]3[C@@H]2CC[C@]2(C)C(=O)CC[C@@H]32)C1 [U18666A]
- downregulation of α1 expression (Na/K-ATPase α1 [2]; U18666A 24 h and 48 h): both dose and time-dependent
- total cellular cholesterol (LLC-PK1 cells [6]): no significant difference
- insulin receptor content ([3]; LLC-PK1 cells after U18666A treatment): remained undisturbed
- caveolin-1 protein level (caveolin-1): downregulated
- cell surface α1 by 3H-ouabain binding (cell surface Na/K-ATPase): downregulation of cell surface α1
- α1 mRNA level (Na/K-ATPase α1 mRNA): no difference compared to control
- intracellular α1 accumulation, colocalization with RFP-Rab7 (Na/K-ATPase α1 [4]; LLC-PK1 cells transfected with RFP-rab7, 5 μg/ml U18666A 24 h): massive intracellular α1 accumulation, most of which clearly colocalized with the Rab7 signals
- colocalization of internalized YFP-α1 with free cholesterol (Na/K-ATPase α1 [4]; LLC-PK1 cells transfected with YFP-α1, 5 μg/ml U18666A 24 h): most of the internalized α1 colocalized with free cholesterol
- α1 signals, cellular distribution (Na/K-ATPase α1 [4]; LLC-PK1 cells, U18666A 24 h): reduced in the plasma membrane but increased in the intracellular compartments
- distribution of free cholesterol (LLC-PK1 cells [7]): redistribution of free cholesterol from the plasma membrane to intracellular compartments
- endocytosis of α1 (wild-type rat α1): endocytosis of α1 in a dose-dependent manner
- endocytosis of α1 (Y55S mutant rat α1): no obvious endocytosis

Compound: CC(CCC[C@@H](C)[C@@H]1CC[C@H]2[C@@H]3CC=C4C[C@@H](O)CC[C@]4(C)[C@H]3CC[C@@]21C)N(C)c1ccc([N+](=O)[O-])c2nonc12 (stereo partly shown) [NBD-cholesterol, 25-[N-[(7-nitro-2-1,3-benzoxadiazol-4-yl)methyl]amino]-27-norcholesterol]
- FRET signals at 530 nm on incubation with PKE ([1]; Trp excited at 295 nm): dose-dependent saturation curve
